The nature of data set [1]: Cytotoxicity of 6-OHDA against SH-SY5Y cells, MTT assay. Particulars: human, SH-SY5Y neuronal cells, relative to control, read-out: cell viability; for viability at 24 h: 6-OHDA. The class given is cell-based. The procedure:
Prior to investigations, 1.0 × 10^5 SH-SY5Y neuronal cells/mL were seeded into 96-well plates for 24 h. To determine the optimal concentration of 6-OHDA for inducing neurotoxicity, cells were seeded into 96-well plates for 24 h and treated with various concentrations of 6-OHDA ranging from 25 to 125 μM for another 24 h. For the evaluation of the cytotoxicity of 1,2,3-triazole-based sulfonamide derivatives on SH-SY5Y neuronal cells, the cells were treated with various concentrations (0.1–10 μM) of 1,2,3-triazole-based sulfonamide derivatives for 24 h.^29 To assess the neuroprotective activity of 1,2,3-triazole-based sulfonamide derivatives, the cells were pretreated with various concentrations (0.1–10 μM) of 1,2,3-triazole-based sulfonamide derivatives for 3 h before being treated with 50 μM of 6-OHDA for another 24 h. Cell viability was assessed by incubating with 5 mg/mL of MTT reagent for 3 h at 37 °C, followed by absorbance measurement at 570 nm using a microplate reader (Thermo Fisher Scientific Inc., MA, USA). The viability of SH-SY5Y cells at each concentration was analyzed as a percentage relative to the control group.
(Tetrazolium assays rely on reduction of a dye to a coloured formazan, in cell work by metabolically active cells.)

Data set [2] concerns 6-OHDA-induced SH-SY5Y neuronal cells. The data set can be described thus: Intracellular ROS production, H2DCFDA assay. Format: cell-based. Particulars: Homo sapiens, 50 μM 6-OHDA alone, 24 h, relative to control. As to the method: ROS production in SH-SY5Y neuronal cells was investigated using H2DCFDA. 1.0 × 10^5 cells/mL of SH-SY5Y neuronal cells were seeded into 96-well plates for 24 h, and 5 μM of selected 1,2,3-triazole-based sulfonamide derivatives were pretreated for 3 h. Then, neurotoxicity of the cells were induced with 50 μM of 6-OHDA for another 24 h. The neuronal cells with 10 μM H2DCFDA were incubated for 30 min at 37 °C in the dark. The emission and excitation wavelengths of 528 nm and 485 nm, respectively, were measured by using a microplate reader. The measured ROS production was calculated as a percentage relative to the control group.

For data set [3] the test system is unchanged. The data set can be described thus: Cellular leakage of LDH enzyme. Format: cell-based, Human. Particulars: 50 μM 6-OHDA alone, 24 h, percentage of control. The procedure: Leakage of LDH, an enzyme commonly used as an assessment factor to evaluate cellular damage, was measured to determine the protective ability of the compounds against 6-OHDA-induced neuronal damage. 1.0 × 10^5 cells/mL of SH-SY5Y neuronal cells were seeded into 6-well plates for 24 h. The cells were pretreated with 5 μM of 1,2,3-triazole-based sulfonamide derivatives for 3 h before being treated with 50 μM of 6-OHDA for 24 h. The cell culture medium of SH-SY5Y cells was collected, and LDH leakage was evaluated using the LDH assay kit. In the presence of LDH, lactate is converted into pyruvate, resulting in an elevated level of NADH production, which is determined via the change in absorbance at 450 nm. LDH activity was calculated according to the manufacturer’s instructions and shown as a percentage of the control group.

Data set [4] has as its target T1, SIRT1 (Homo sapiens, UniProt Q96EB6).
T1 construct: endogenous in cells; host or cells: SH-SY5Y
T1 sequence (Q96EB6 1-747): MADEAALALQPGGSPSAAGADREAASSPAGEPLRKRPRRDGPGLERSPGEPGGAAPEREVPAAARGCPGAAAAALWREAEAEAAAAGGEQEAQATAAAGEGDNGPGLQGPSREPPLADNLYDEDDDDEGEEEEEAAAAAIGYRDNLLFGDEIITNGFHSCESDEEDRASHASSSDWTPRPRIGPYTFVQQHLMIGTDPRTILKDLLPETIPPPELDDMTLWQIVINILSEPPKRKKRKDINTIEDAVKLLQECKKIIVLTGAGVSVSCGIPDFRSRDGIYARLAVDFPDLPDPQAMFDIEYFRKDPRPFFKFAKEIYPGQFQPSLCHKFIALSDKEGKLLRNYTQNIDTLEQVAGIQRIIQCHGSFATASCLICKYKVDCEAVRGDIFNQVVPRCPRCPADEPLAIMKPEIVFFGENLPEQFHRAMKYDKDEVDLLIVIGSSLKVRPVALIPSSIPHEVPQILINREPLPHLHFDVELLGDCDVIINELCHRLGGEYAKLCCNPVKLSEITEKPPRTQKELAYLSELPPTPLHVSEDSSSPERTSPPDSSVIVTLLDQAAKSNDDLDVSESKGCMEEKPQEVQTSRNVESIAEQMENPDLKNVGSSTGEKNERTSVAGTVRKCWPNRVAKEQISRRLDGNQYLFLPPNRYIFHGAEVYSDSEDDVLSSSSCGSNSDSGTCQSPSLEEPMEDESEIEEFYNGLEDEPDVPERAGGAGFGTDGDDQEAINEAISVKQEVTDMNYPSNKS
The data set is described as follows: SIRT1 deacetylase activity in SH-SY5Y cell lysate. Particulars: 24 h, read-out: SIRT1 activity. Format: cell-based. As to the method:
SH-SY5Y neuronal cells at 1.0 × 10^5 cells/mL were seeded into 6-well plates for 24 h. Then, the cells were pretreated with 5 μM 1,2,3-triazole-based sulfonamide derivatives for 3 h before neurotoxicity was induced with 50 μM 6-OHDA for another 24 h. The cell culture medium was rinsed off with cold 1X PBS. The cells were incubated at 4 °C with 1X RIPA buffer containing a protease inhibitor for 20 min before being harvested using a cell scraper, followed by centrifugation at 12,000 rpm for 20 min. Protein concentrations were measured using the Bradford protein assay, and SIRT1 activity in the cells was determined following the manufacturer’s instructions. The increase in SIRT1 enzyme activity was measured by fluorescence intensity at an excitation wavelength of 340 nm and an emission wavelength of 445 nm. SIRT1 enzyme activity was statistically analyzed as a percentage relative to the control group.

SMILES strings stand for the structures. Read-outs that look alike come from different tables or passages of the source.

Our source for the viability, activity and LDH activity values is PMC12242667, “Attenuation of 6‑OHDA-Induced Neurotoxicity by 1,2,3-Triazole-Based Sulfonamides through SIRT1 Activity” (ACS Omega, 2025).

As for `NCCc1cc(O)c(O)cc1O` [6-OHDA, 6-hydroxydopamine], the viability (usually a read-out of living cells in per cent, often relative to untreated cells) at 24 h, 25 μM in data set [1] (6-OHDA 25 μM (first of five concentrations 25–125 μM)) came to 90 ± 2.81%. Further, in data set [1] (6-OHDA 125 μM (fifth of five concentrations 25–125 μM)), the viability at 24 h, 125 μM is 54.4 ± 3.06%. Moreover, the viability at 24 h was 56.2 ± 2.37% in data set [1] (fourth of five concentrations 25–125 μM), 78.5 ± 2.73% in data set [1] (second of five concentrations 25–125 μM) and 61.6 ± 2.44% in data set [1] (third of five concentrations 25–125 μM). For the same compound, the activity at 50 µM in data set [2] was found to be 119 ± 4.75%; in data set [4], 78.8 ± 3.74%. In addition, the LDH activity in data set [3] stood at 132.4 ± 5.089%.
